The compounds below were run against T1, TrkB (Homo sapiens, UniProt Q16620) (assay: Trk B Fluorescence Polarization Kinase Assay). Settings: uncertainty ±10%.
T1 construct: purchased Upstate 14-507M
Type: biochemical
Protocol: Trk B Fluorescence Polarization Kinase Assay (TrkB IC50 Data)
The compounds of the present invention are also specific inhibitors of TrkB. Selection of preferred compounds of Formula I for use as TrkB inhibitors was performed in the following manner. The TrkB assay utilized the fluorescein-labeled phosphopeptide and the anti-phosphotyrosine antibody included in the Panvera Phospho-Tyrosine Kinase Kit (Green) supplied by Invitrogen. When TrkB phosphorylated poly Glu4Tyr, the fluorescein-labeled phosphopeptide was displaced from the anti-phosphotyrosine antibody by the phosphorylated poly Glu4Tyr, thus decreasing the FP value. The TrkB kinase reaction was incubated at room temperature for 30 minutes under the following conditions: 50 nM TrkB (Upstate, catalog # 14-507M), 20 ug/mL poly Glu4Tyr, 150 uM ATP, 5 mM MgCl2, 1% compound in DMSO. The kinase reaction was stopped with the addition of EDTA. The fluorescein-labeled phosphopeptide and the anti-phosphotyrosine antibody were added and incubated for 30 minutes at room temperature. Data points were an average of triplicate samples. Inhibition and IC50 data analysis were done with GraphPad Prism using a non-linear regression fit with a multiparamater, sigmoidal dose-response (variable slope) equation.

T1 sequence (Q16620 32-822): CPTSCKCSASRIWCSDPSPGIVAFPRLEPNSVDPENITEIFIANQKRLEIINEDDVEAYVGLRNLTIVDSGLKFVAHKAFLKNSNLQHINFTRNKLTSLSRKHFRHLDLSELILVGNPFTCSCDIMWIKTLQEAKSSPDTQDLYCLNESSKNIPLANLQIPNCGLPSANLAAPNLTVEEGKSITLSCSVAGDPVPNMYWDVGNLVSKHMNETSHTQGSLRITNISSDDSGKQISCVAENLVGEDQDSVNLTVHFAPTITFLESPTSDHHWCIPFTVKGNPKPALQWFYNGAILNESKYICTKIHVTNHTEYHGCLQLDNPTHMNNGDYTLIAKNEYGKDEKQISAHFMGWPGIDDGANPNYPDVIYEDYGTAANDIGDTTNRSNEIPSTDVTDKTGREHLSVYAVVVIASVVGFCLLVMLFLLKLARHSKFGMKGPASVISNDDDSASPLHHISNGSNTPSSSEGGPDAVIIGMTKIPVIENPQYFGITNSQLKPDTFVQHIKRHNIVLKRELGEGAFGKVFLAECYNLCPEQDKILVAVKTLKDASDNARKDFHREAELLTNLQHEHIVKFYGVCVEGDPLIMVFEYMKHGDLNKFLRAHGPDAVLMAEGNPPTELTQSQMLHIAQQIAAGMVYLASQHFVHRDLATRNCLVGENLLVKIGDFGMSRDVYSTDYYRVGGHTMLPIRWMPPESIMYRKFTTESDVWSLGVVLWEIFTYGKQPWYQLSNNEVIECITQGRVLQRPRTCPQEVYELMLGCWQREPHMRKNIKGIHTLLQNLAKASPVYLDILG

Row | IC50 | SMILES
1 | > 20 µM | O=C1CCCN1CCOc1ccc2c(C3CCN(C(=O)Nc4ccc(N5CCOCC5)cc4)CC3)ncnc2c1 [Compound 85, 4-{7-[2-(2-Oxo-pyrrolidin-1-yl)-ethoxy]-quinazolin-4-yl}-piperidine-1-carboxylic acid (4-morpholin-4-yl-phenyl)-amide]
2 | 2 µM | CS(=O)(=O)NCCCOc1ccc2c(C3CCN(C(=O)Nc4ccc(N5CCCC5)nc4)CC3)ncnc2c1 [Compound 86, 4-[7-(3-Methanesulfonylamino-propoxy)-quinazolin-4-yl]-piperidine-1-carboxylic acid (6-pyrrolidin-1-yl-pyridin-3-yl)-amide]
3 | 7.2 µM | CS(=O)(=O)NCCCOc1ccc2c(C3CCN(C(=O)Nc4ccc(N5CCOCC5)nc4)CC3)ncnc2c1 [Compound 87, 4-[7-(3-Methanesulfonylamino-propoxy)-quinazolin-4-yl]-piperidine-1-carboxylic acid (6-morpholin-4-yl-pyridin-3-yl)-amide]
4 | 0.3 µM | O=C1CCCN1CCCOc1ccc2c(C3CCN(C(=O)Nc4cnc(N5CCCC5)nc4)CC3)ncnc2c1 [Compound 90, 4-{7-[3-(2-Oxo-pyrrolidin-1-yl)-propoxy]-quinazolin-4-yl}-piperidine-1-carboxylic acid (2-pyrrolidin-1-yl-pyrimidin-5-yl)-amide]
5 | 1.9 µM | O=C(Nc1ccc(N2CCOCC2)nc1)N1CCC(c2ncnc3cc(OCCN4CCOC4=O)ccc23)CC1 [Compound 91, 4-{7-[2-(2-Oxo-oxazolidin-3-yl)-ethoxy]-quinazolin-4-yl}-piperidine-1-carboxylic acid (6-morpholin-4-yl-pyridin-3-yl)-amide]
6 | 1.3 µM | O=C(Nc1ccc(N2CCCC2)nc1)N1CCC(c2ncnc3cc(OCCN4CCOC4=O)ccc23)CC1 [Compound 92, 4-{7-[2-(2-Oxo-oxazolidin-3-yl)-ethoxy]-quinazolin-4-yl}-piperidine-1-carboxylic acid (6-pyrrolidin-1-yl-pyridin-3-yl)-amide]
7 | > 42 µM | CN1CCC(COc2ccc3c(C4CCN(C(=O)Nc5ccc(N6CCOCC6)cc5)CC4)ncnc3c2)CC1 [Compound 94, 4-[7-(1-Methyl-piperidin-4-ylmethoxy)-quinazolin-4-yl]-piperidine-1-carboxylic acid (4-morpholin-4-yl-phenyl)-amide]
8 | 3.4 µM | O=C(Nc1ccc(N2CCCC2)nc1)N1CCC(c2ncnc3cc(OCCN4CCOCC4)ccc23)CC1 [Compound 95, 4-[7-(2-Morpholin-4-yl-ethoxy)-quinazolin-4-yl]-piperidine-1-carboxylic acid (6-pyrrolidin-1-yl-pyridin-3-yl)-amide]
9 | 27.9 µM | O=C(Nc1ccc(N2CCOCC2)cc1)N1CCC(c2ncnc3cc(OCCN4CCOCC4)ccc23)CC1 [Compound 96, 4-[7-(2-Morpholin-4-yl-ethoxy)-quinazolin-4-yl]-piperidine-1-carboxylic acid (4-morpholin-4-yl-phenyl)-amide]
10 | > 20 µM | CC(=O)N1CCN(CCOc2ccc3c(C4CCN(C(=O)Nc5ccc(N6CCOCC6)cc5)CC4)ncnc3c2)CC1 [Compound 97, 4-{7-[2-(4-Acetyl-piperazin-1-yl)-ethoxy]-quinazolin-4-yl}-piperidine-1-carboxylic acid (4-morpholin-4-yl-phenyl)-amide]
11 | > 20 µM | O=C(Nc1ccc(N2CCOCC2)cc1)N1CCC(c2ncnc3cc(OCCC4CCCCN4)ccc23)CC1 (stereo not shown) [Compound 98, 4-[7-(2-Piperidin-2-yl-ethoxy)-quinazolin-4-yl]-piperidine-1-carboxylic acid (4-morpholin-4-yl-phenyl)-amide]
12 | 6.41 µM | CN1CCC(COc2ccc3c(C4CCN(C(=O)Nc5ccc(N6CCCC6)nc5)CC4)ncnc3c2)CC1 [Compound 99, 4-[7-(1-Methyl-piperidin-4-ylmethoxy)-quinazolin-4-yl]-piperidine-1-carboxylic acid (6-pyrrolidin-1-yl-pyridin-3-yl)-amide]
13 | 0.1 µM | CC(C)Oc1ccc(NC(=O)N2CCC(c3ncnc4cc(N(C)C)ccc34)CC2)cc1 [Compound 100, 4-(7-Dimethylamino-quinazolin-4-yl)-piperidine-1-carboxylic acid (4-isopropoxy-phenyl)-amide]

Source: US8071768B2, “Alkylquinoline and alkylquinazoline kinase modulators” (Janssen Pharmaceutica, N.V., priority 2005, dated 2011)
